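Results reflect a 48-hour exposure of cells in 96-well plates to compound at five concentrations. The concentration for 50% growth inhibition is given as GI50. TGI: concentration producing complete growth inhibition.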

Holding throughout (assay): NCI anticancer screen, dose series, 48 h
The test system of test [1] is MALME-3M melanoma.
Test [2] has as its system SN12C renal.
Test [3] concerns MDA-N.
The subject of test [4] is UACC-257 melanoma.
In test [5] the test system is NCI-H226 lung.
In test [6] the test system is BT-549 breast.
In test [7] the test system is RXF 393 renal.
Test [8] deals with TK-10 renal.
Test [9] deals with RPMI-8226 leukemia.

Consider `[O-][N+]1=C2CCC/C(=N/O)C2(O)C2CCCCC21N1CCOCC1` (stereo not given), for which the TGI in [1], in test [2], in test [3], in [4], in test [5] and in test [6] was above 100 µM throughout. The TGI in test [7] and in test [8] was above 100 µM throughout.

For `CCCCCCCCCCCCCCCCCCOc1ccccc1COP(=O)(O)OOCC[N+](C)(C)C`, the GI50 in [1] was 1.16 µM; in test [2] it was 1.1 µM; in test [4], 1.54 µM; in test [5], 1.16 µM; in test [6], 1.32 µM; in [7], 0.911 µM. Besides, in test [8], the GI50 is 1.35 µM. Also, the TGI came out at 3.21 µM in [1]; 3.17 µM in test [2]; 6.45 µM in test [4]; 5.54 µM in [5]; 4.26 µM in [6]; 1.96 µM in test [7]. Besides, in [8], the TGI came out at 4.49 µM.

Consider `COc1ccc(/C=C/C(=O)CCN2CCN(CCC(=O)/C=C/c3ccc(OC)cc3)CC2)cc1`, for which the TGI came out at 35.9 µM in test [1]; 26 µM in test [2]; 10.5 µM in test [3]; 29.1 µM in test [4]; 52.8 µM in test [5]; 39.9 µM in [6]. Besides, the TGI in test [7] stood at 17.2 µM; in test [8], 28 µM.

Take `O[C@@]12Cc3c([nH]c4ccccc34)[C@@H]3Oc4c(-c5ccccc5)ccc5c4[C@@]31CCN(CC1CC1)[C@@H]2C5`: the TGI was 3.99 µM in [1]; 3.23 µM in test [3]; 3.45 µM in test [4]; 23.4 µM in [6]; above 100 µM in test [9].

Regarding `O=C1OC(c2ccccc2Br)=N/C1=C/c1ccccc1`, the TGI in test [1] was 45.5 µM; in [3] it was 49.4 µM; in [4], above 100 µM; in [5] it was 77.9 µM; in [9], above 100 µM; in test [8] it was above 100 µM.

With `Cc1ccc(S(=O)(=O)Nn2c(S)c(C#N)c(-c3ccc(Cl)cc3)c(C#N)c2=O)cc1`, the TGI in test [1] is above 100 µM; in [2] it was 69.7 µM; in test [4], above 100 µM; in test [5] it was 66.5 µM; in test [6], 41.9 µM; in [9] it was 88.8 µM. The TGI in test [7] is above 100 µM; in test [8], 76 µM.

Consider `C[C@@H](c1ccccc1)N1CO[C@@]2(C#Cc3ccc4c(c3)OCO4)CCC[C@@H]12`, for which the TGI in test [2] was determined as 33.3 µM; in test [3] it was 37.7 µM; in test [4], 38.2 µM; in [5] it was 38.6 µM; in [9], 38 µM; in test [7], 24.4 µM. In test [8], the TGI is 28.8 µM.

Turning to `CC(C)c1c(O[Si](C(C)C)(C(C)C)C(C)C)cc2c(c1O)CC[C@H]1C(C)(C)CCC[C@]21C`, the TGI in test [1], in test [2], in test [3], in test [4], in [5] and in test [9] was above 100 µM each time. For the same molecule, the TGI in test [7] and in test [8] was above 100 µM in each case.

`COC(=O)c1c2c(cc3c1CC1(C3)Cc3cc4c(c(C(=O)OC)c3C1)CCC4)CCC2`: the TGI in test [1], in test [2], in [3], in test [4], in test [5] and in test [9] was above 100 µM in each case. Besides, the TGI in test [7] and in test [8] was above 100 µM throughout.

On to `COCCCNc1c2ccccc2nc2ccccc12`, for which the TGI in test [1] turned out to be 7.17 µM; in [2] it was 15.1 µM; in test [3], 8.78 µM; in test [4], 7.03 µM; in test [6] it was 53.2 µM; in [7], 14.2 µM. In test [8], this molecule returned a TGI of 89.8 µM.

For the molecule `C#CCNC(=O)CC[C@@H](C)[C@H]1CC[C@H]2[C@@H]3CC[C@@H]4CC(=O)CC[C@]4(C)[C@H]3CC[C@]12C`, the GI50 in test [1] is 14 µM; in test [2], 13.2 µM; in test [4], 13.2 µM; in [5], 14.8 µM; in [6] it was 13.7 µM; in [9], 1.82 µM. Moreover, the GI50 in test [7] is 14 µM; in [8], 18 µM. Besides, the TGI in test [1] amounted to 31.7 µM; in test [2], 32.1 µM; in test [4], 42.3 µM; in [5], 36.2 µM; in test [6], 36.7 µM; in test [9], 19.1 µM. In addition, the TGI in test [7] is 31.7 µM; in test [8] it was 44.5 µM.

Regarding `C/C(=N\O)c1cccc(Nc2c3ccccc3nc3occc23)c1`, the TGI in test [1] is 9.7 µM; in test [2] it was above 100 µM; in test [3], above 100 µM; in test [4] it was above 100 µM; in [5], 54.8 µM; in [6], 24.1 µM. Moreover, the figures for the TGI in test [9] and in test [8] were above 100 µM and 44.3 µM, respectively.

With `OCC1OC(n2cnc3c(Cl)nc(Nc4ccc(Cl)c(Cl)c4)nc32)CC1O` (stereo not given), the TGI in [1] turned out to be 21.2 µM; in test [2], 23.4 µM; in test [4] it was 20 µM; in [5] it was 20.2 µM; in test [6], 22.3 µM; in test [9], 29.4 µM. The figures for the TGI in [7] and in [8] were 19.5 µM and 35.6 µM, respectively.

For `Nc1ncnc2c1ccn2-c1cccc(NC(=O)c2ccc(N3CCOCC3)c(C(F)(F)F)c2)c1`, the GI50 in test [1] is 3.08 µM; in test [2], 2.9 µM; in [4] it was 4.99 µM; in [5] it was 3.51 µM; in test [9], 1.39 µM; in test [7] it was 2.05 µM. The GI50 in test [8] is 1.92 µM. The TGI in [1] is 13.2 µM; in test [2], 9.64 µM; in test [4], 22.1 µM; in test [5], 14.3 µM; in test [9], 4.04 µM; in [7] it was 5.1 µM. Further, the TGI in test [8] turned out to be 6.04 µM.

(Values after PubChem BioAssay (NCI).)
